# Data reported in ChEMBL document CHEMBL2074340, “Molecular characterization of human and rat organic anion transporter OATP-D” (Am J Physiol Renal Physiol, 2003).
# T1: Solute carrier organic anion transporter family member 3A1 (Homo sapiens, UniProt Q9UIG8)
# T1 sequence (Q9UIG8 whole entry): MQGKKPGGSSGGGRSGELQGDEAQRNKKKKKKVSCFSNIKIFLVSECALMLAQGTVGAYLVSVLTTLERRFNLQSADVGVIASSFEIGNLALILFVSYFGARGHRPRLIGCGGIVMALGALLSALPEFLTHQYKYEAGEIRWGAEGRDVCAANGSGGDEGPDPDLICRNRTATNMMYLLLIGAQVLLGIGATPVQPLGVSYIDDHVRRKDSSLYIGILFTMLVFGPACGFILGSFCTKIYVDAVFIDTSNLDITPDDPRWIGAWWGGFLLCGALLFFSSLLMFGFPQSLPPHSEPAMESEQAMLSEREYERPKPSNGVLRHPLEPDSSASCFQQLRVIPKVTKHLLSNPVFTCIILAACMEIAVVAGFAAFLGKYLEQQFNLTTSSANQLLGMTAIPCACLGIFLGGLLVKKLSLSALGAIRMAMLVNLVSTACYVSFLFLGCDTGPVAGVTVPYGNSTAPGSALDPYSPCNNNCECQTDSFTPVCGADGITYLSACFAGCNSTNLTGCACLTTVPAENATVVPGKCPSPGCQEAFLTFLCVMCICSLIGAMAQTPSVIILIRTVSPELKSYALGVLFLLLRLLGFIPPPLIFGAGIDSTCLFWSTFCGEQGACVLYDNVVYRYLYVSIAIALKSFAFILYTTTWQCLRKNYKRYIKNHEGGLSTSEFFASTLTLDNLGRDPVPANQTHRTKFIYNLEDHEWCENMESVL
# T2: Solute carrier organic anion transporter family member 3A1 (Rattus norvegicus, UniProt Q99N02)
# T2 sequence (Q99N02 whole entry): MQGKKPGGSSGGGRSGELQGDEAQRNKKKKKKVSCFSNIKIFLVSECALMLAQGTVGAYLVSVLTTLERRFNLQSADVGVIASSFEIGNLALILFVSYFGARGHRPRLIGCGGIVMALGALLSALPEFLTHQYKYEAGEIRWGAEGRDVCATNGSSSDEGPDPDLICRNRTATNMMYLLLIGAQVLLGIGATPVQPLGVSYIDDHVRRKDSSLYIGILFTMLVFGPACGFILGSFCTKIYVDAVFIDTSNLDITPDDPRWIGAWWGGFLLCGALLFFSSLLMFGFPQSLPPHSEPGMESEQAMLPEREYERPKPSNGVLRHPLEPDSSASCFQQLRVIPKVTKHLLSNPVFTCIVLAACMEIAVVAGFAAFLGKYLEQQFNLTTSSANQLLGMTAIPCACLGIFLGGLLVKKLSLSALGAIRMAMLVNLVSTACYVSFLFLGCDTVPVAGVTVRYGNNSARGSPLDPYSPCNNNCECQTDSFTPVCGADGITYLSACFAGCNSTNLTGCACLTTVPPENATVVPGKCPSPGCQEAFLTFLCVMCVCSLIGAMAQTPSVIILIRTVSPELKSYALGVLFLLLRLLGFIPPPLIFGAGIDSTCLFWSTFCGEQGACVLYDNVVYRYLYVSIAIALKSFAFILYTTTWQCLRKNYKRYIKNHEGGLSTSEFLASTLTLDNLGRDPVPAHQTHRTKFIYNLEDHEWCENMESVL
# T3: Solute carrier organic anion transporter family member 3A1 (SLCO3A1/OATP3A1) (Homo sapiens, UniProt Q9UIG8)
# T3 sequence (Q9UIG8 whole entry): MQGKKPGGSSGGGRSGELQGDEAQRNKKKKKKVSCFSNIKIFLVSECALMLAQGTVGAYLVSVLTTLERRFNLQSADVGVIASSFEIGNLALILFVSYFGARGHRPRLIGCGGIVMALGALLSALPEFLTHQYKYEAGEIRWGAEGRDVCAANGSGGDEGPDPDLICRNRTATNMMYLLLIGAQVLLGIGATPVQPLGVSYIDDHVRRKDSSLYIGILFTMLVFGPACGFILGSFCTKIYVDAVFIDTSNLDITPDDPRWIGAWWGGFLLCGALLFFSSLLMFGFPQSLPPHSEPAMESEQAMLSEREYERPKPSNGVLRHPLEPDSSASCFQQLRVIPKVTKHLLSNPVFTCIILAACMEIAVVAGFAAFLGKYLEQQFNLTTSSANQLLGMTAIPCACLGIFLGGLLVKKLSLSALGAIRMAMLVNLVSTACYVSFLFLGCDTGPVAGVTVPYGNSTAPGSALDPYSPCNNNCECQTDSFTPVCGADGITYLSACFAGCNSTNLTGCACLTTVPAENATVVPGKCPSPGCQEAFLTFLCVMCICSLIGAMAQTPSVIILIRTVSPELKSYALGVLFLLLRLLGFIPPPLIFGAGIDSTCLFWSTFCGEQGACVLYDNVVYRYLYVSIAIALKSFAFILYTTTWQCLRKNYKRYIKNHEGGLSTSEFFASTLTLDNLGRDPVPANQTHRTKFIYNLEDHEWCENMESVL
# Tests used:
# [1] = molecular target: T1, Solute carrier organic anion transporter family member 3A1; assay: TP_TRANSPORTER: inhibition of PGE2 uptake (PGE2: 0.015 uM) by Prostaglandin F2alpha at 0.15uM in Xenopus laevis oocytes; type: functional, cell-based; parameters: scale not given: the % may be the effect or the level left; conditions: oocyte
# [2] = molecular target: T2, Solute carrier organic anion transporter family member 3A1; assay: (§1) TP_TRANSPORTER: uptake in Xenopus laevis oocytes; type: functional, cell-based; conditions: oocyte
# [3] = molecular target: T1, Solute carrier organic anion transporter family member 3A1; assay: as §1; type: functional, cell-based; conditions: oocyte
# [4] = molecular target: T3, Solute carrier organic anion transporter family member 3A1 (SLCO3A1/OATP3A1); assay: TP_TRANSPORTER: inhibition of PGE2 uptake (PGE2: 0.015 uM) by Prostaglandin E1 at 0.15uM in Xenopus laevis oocytes; type: functional, cell-based, Oocyte; parameters: scale not given: the % may be the effect or the level left; conditions: Xenopus laevis oocytes expressing OATP3A1 (SLCO3A1), probe PGE2, read-out: Activity
# [5] = molecular target: T1, Solute carrier organic anion transporter family member 3A1; assay: TP_TRANSPORTER: inhibition of PGE2 uptake (PGE2: 0.015 uM) by […] at 0.15uM in Xenopus laevis oocytes; type: functional, cell-based; parameters: scale not given: the % may be the effect or the level left; conditions: oocyte
# [6] = molecular target: T3, Solute carrier organic anion transporter family member 3A1 (SLCO3A1/OATP3A1); assay: TP_TRANSPORTER: inhibition of PGE2 uptake (PGE2: 0.015 uM) by Prostaglandin D2 at 0.15uM in Xenopus laevis oocytes; type: functional, cell-based, Oocyte; parameters: scale not given: the % may be the effect or the level left; conditions: Xenopus laevis oocytes expressing OATP3A1 (SLCO3A1), probe PGE2, read-out: Activity
# [7] = molecular target: T3, Solute carrier organic anion transporter family member 3A1 (SLCO3A1/OATP3A1); assay: TP_TRANSPORTER: inhibition of PGE2 uptake (PGE2: 0.015 uM) by P-aminohippuric acid at 0.15uM in Xenopus laevis oocytes; type: functional, cell-based, Oocyte; parameters: scale not given: the % may be the effect or the level left; conditions: Xenopus laevis oocytes expressing OATP3A1 (SLCO3A1), probe PGE2, read-out: Activity
# [8] = substrate: CC/C=C\C[C@H](O)/C=C/[C@H]1[C@H](O)CC(=O)[C@@H]1C/C=C\CCCC(=O)O; assay: as §1; type: functional, cell-based, Oocyte
# [9] = substrate: CCCCC[C@H](O)/C=C/[C@H]1[C@H](O)CC(=O)[C@@H]1CCCCCCC(=O)O; assay: as §1; type: functional, cell-based, Oocyte
Molecule,Activity [2],Activity [3],other results
CCCCC[C@H](O)/C=C/[C@@H]1[C@@H](C/C=C\CCCC(=O)O)[C@@H](O)C[C@H]1O [DINOPROST],substrate [+],substrate [+],Activity [1]: 0%
CCCCC[C@H](O)/C=C/[C@H]1[C@H](O)CC(=O)[C@@H]1CCCCCCC(=O)O [ALPROSTADIL],substrate [+],–,activity at 0.15 µM [4]: 0%
CC#CCC(C)[C@H](O)/C=C/[C@@H]1[C@H]2C/C(=C/CCCC(=O)O)C[C@H]2C[C@H]1O (stereo not given in full) [ILOPROST],–,is not a substrate [-],–
PROSTAGLANDIN E4,–,–,Activity [5]: 0%
Nc1ccc(C(=O)NCC(=O)O)cc1 [AMINOHIPPURIC ACID],–,–,activity at 0.15 µM [7]: 30%
Solute carrier organic anion transporter family member 3A1 (Homo sapiens) (protein) MQGKKPGGSSGGGRSGELQGDEAQRNKKKKKKVSCFSNIKIFLVSECALMLAQGTVGAYLVSVLTTLERRFNLQSADVGVIASSFEIGNLALILFVSYFGARGHRPRLIGCGGIVMALGALLSALPEFLTHQYKYEAGEIRWGAEGRDVCAANGSGGDEGPDPDLICRNRTATNMMYLLLIGAQVLLGIGATPVQPLGVSYIDDHVRRKDSSLYIGILFTMLVFGPACGFILGSFCTKIYVDAVFIDTSNLDITPDDPRWIGAWWGGFLLCGALLFFSSLLMFGFPQSLPPHSEPAMESEQAMLSEREYERPKPSNGVLRHPLEPDSSASCFQQLRVIPKVTKHLLSNPVFTCIILAACMEIAVVAGFAAFLGKYLEQQFNLTTSSANQLLGMTAIPCACLGIFLGGLLVKKLSLSALGAIRMAMLVNLVSTACYVSFLFLGCDTGPVAGVTVPYGNSTAPGSALDPYSPCNNNCECQTDSFTPVCGADGITYLSACFAGCNSTNLTGCACLTTVPAENATVVPGKCPSPGCQEAFLTFLCVMCICSLIGAMAQTPSVIILIRTVSPELKSYALGVLFLLLRLLGFIPPPLIFGAGIDSTCLFWSTFCGEQGACVLYDNVVYRYLYVSIAIALKSFAFILYTTTWQCLRKNYKRYIKNHEGGLSTSEFFASTLTLDNLGRDPVPANQTHRTKFIYNLEDHEWCENMESVL,–,–,Km [8]: 0.0555 µM; Km [9]: 0.0485 µM

# Continued, in another order:
Activity [2],Activity [3],Molecule,other results
–,is not a substrate [-],CN(Cc1cnc2nc(N)nc(N)c2n1)c1ccc(C(=O)N[C@@H](CCC(=O)O)C(=O)O)cc1 [METHOTREXATE],–
substrate [+],–,PROSTAGLANDIN E5,–
–,is not a substrate [-],CCCCC[C@H](O)/C=C/[C@H]1C(=O)C[C@H](O)[C@@H]1C/C=C\CCCC(=O)O [PROSTAGLANDIN D2],activity at 0.15 µM [6]: 30%
–,is not a substrate [-],CCCCC[C@H](O)/C=C/[C@H]1OC(O)C[C@H](O)[C@@H]1C/C=C\CCCC(=O)O (stereo not given in full) [THROMBOXANE B2],–
